Publication PMC11504387, “Synthesis and Biological Activity Assessment of 2-Styrylbenzothiazoles as Potential Multifunctional Therapeutic Agents” (Antioxidants, 2024)

Columns and labels:
Human recombinant 5-LO = target: T1, Human recombinant 5-LO (Homo sapiens, UniProt P09917); test: 5-Lipoxygenase inhibition in a cell-free assay; type: biochemical; details: for remaining activity at 10 µM: % relative to vehicle (DMSO), read-out: 5-LO Residual Activity (Cell-Free, 10 µM); for IC50: isolated enzyme
T1 construct: made in house
T1 sequence (P09917 1-674): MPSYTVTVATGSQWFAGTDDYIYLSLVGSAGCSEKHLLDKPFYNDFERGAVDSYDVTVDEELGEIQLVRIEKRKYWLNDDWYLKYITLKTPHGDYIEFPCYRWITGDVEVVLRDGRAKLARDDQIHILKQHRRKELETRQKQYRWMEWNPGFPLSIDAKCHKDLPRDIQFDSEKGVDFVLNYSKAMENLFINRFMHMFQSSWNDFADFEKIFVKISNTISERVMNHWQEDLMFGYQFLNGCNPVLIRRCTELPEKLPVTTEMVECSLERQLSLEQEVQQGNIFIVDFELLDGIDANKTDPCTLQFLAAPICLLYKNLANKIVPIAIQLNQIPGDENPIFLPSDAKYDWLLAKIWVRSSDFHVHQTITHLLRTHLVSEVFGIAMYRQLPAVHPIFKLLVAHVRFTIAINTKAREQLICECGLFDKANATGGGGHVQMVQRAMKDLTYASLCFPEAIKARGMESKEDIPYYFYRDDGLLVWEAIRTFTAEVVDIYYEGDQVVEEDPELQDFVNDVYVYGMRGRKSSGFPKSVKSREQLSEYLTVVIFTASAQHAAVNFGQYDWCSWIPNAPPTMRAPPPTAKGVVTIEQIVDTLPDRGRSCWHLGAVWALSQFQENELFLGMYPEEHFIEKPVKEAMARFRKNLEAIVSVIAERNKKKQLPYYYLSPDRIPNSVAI
Experimental: Human recombinant 5-LO was expressed and isolated as described before, and immediately used for activity assays after isolation. The 5-LO (0.5 µg, in 1 mL PBS pH 7.4 containing 1 mM EDTA) was pre-incubated with the test compounds for 10 min at 4 °C and pre-warmed for 30 s at 37 °C. 5-LO product formation was initiated by sequential addition of 1 mM CaCl2 and 20 μM arachidonic acid. After 10 min at 37 °C, the reaction was terminated by addition of 1 mL ice-cold methanol containing 200 ng PGB1 as internal standard. Formed 5-LO products (trans-LTB4, epi-trans-LTB4, and 5-HETE) were extracted using Sep-Pak C18 35 cc Vac Cartridges and analysed by UPLC-MS/MS as previously described.

[1] = Ferric reducing antioxidant power (FRAP) test; type: biochemical; details: Trolox equivalents; mean ± SD
Experimental: The FRAP test, based on a colorimetric reaction, can assess the ability of a sample to reduce ferric ions to ferrous ions when complexed with 2,4,6-trispiridyl-s-triazine (TPTZ). The FRAP solution consisted of 0.1 M acetate buffer (pH 3.6), 10 mmol/L of TPTZ in 40 mM HCl and a 20 mM solution of FeCl3, in a 10:1:1 ratio. A 1.9 mL volume of the FRAP solution was incubated with 0.1 mL of the sample solution at 37 °C for 10 min. The absorbance was then read with a UV-Vis spectrophotometer at a wavelength of 593 nm, which corresponds to the maximum absorbance peak of the Fe^2+-TPTZ complex. Trolox® was used as a standard, and ferulic acid was used as positive control, and the results are expressed as µmol TE/g.

[2] = In vitro filtering parameters of O/W sunscreen formulation on PMMA plates; details: 3% in O/W sunscreen formulation
Experimental: Synthesized compounds were incorporated at 3% concentration in a suitable oil-in-water (O/W) emulsion for cosmetic use as sunscreen.
INCI: Aqua, Glycerin, Xanthan Gum, Phenoxyethanol (and) Ethylhexylglycerin, Tribehenin PEG-20 Esters, Cetearyl Alcohol, Dicaprylyl Carbonate, PPG 26 Buteth-26 (and) PEG 40 Hydrogenated Castor Oil, C12-15 Alkyl Benzoate, Sodium hydroxide (sol. 10%).
A protocol previously reported by us was adopted. Briefly, 32.5 mg of each compound formulation was spread on the rough surface of 5 × 5 cm^2 PMMA plates in the form of small drops of approximately equal mass, in triplicate. The plates were placed in the dark for 15–30 min to allow the formation of a sun-stabilised standard layer and then inserted into the instrument and measured at five different points on each plate (UV transmittance range 290–400 nm). The blank was a plate coated with 32.5 mg glycerine, chosen for its non-fluorescence and UV transparency. In addition, in vitro SPF, UVAPF and ʎc values were calculated according to Equations (2)–(4) above. To evaluate the booster effect of selected synthesized compounds, they were incorporated at 3% concentration in an oil-in-water (O/W) sunscreen formulation with fixed SPF and UVAPf values (30 and 10, respectively).
Aiming to create compounds with diverse biological activities, the synthesized 2-styrylbenzothiazoles were examined for potential applications in sunscreens. Each candidate was incorporated into a standard cosmetic formulation at a concentration of 3% and subjected to photoprotective efficacy testing using the Diffey–Robson method. The formulation comprised an oil-in-water (O/W) emulsion suitable for sunscreen use, with each benzothiazole derivative being heat-solubilized in the oil phase and then dispersed into the emulsion using a turbo emulsifier. The mixture was then cooled, and the emulsion was spread onto polymethylmethacrylate (PMMA) plates before recording the transmittance spectra. The SPF value, UVA protection factor value (UVAPF), the […], and the critical wavelength (λc) were determined from the transmittance spectra using SPF calculator software and are presented in Table 3. These parameters are essential for evaluating the efficacy of potential sunscreen products.

[3] = target: T2, 5-LO in A23187-stimulated human PMNL (Homo sapiens, UniProt P09917); test: 5-Lipoxygenase inhibition in a cell-based assay (PMNL); details: for remaining activity at 10 µM: PMNL, % relative to vehicle (DMSO), read-out: 5-LO Residual Activity (PMNL, 10 µM); for IC50: activated PMNL
T2 construct: Freshly isolated PMNL (1 × 10^6 cells/mL) in PBS buffer pH 7.4; endogenous in cells; host or cells: primary human PMNL (neutrophils) isolated from blood
T2 sequence (P09917 1-674): T1 sequence (P09917 1-674)
Experimental: Following blood density centrifugation and cell population separation, PMNL was recovered from the pellet after hypotonic lysis of erythrocytes. Freshly isolated PMNL (1 × 10^6 cells/mL) in PBS buffer pH 7.4 with glucose (1 mg/mL) and CaCl2 (1 mM) was pre-incubated with the test compounds for 10 min at 37 °C. Then, 5-lipoxygenase (5-LO) product formation was started by addition of 2.5 μM Ca^2+-ionophore A23187 plus 20 μM arachidonic acid. The reaction was stopped after 10 min at 37 °C with 1 mL of ice-cold methanol containing 200 ng PGB1 as internal standard. Major 5-LO products (LTB4, trans-LTB4, epi-trans-LTB4, and 5-HETE) were extracted by SPE using Sep-Pak C18 35 cc Vac Cartridges (Waters, Milford, MA, USA) and analysed by UPLC-MS/MS as described by Pein et al..

remaining activity at 10 µM (Human recombinant 5-LO) [%] | ʎc (critical wavelength) [2] [nm] | remaining activity at 10 µM [3] [%] | IC50 (Human recombinant 5-LO) [µM] | IC50 [3] [µM] | SMILES | FRAP [1] [µmolTE/g] | SPF [2] | UVA/UVB [2] | UVAPF [2]
72 ± 20.4 | 364 | 48.7 ± 10.2 | – | – | C(=C\c1nc2ccccc2s1)/c1ccccc1 [BZTst1, (E)-2-styrylbenzo[d]thiazole] | 331.15 ± 6.29 | 13.88 | 0.96 | 7.08
47.3 ± 20.2 | 384 | 22.9 ± 14.6 | 9.26 | 2.9 | Oc1ccc(/C=C/c2nc3ccccc3s2)cc1 [BZTst2, (E)-4-(2-(benzo[d]thiazol-2-yl)vinyl)phenol] | 1122.44 ± 25.14 | 2.59 | 1.46 | 5.69
46.7 ± 28.5 | 378 | 75.3 ± 19.7 | – | – | COc1ccc(/C=C/c2nc3ccccc3s2)cc1 [BZTst3, (E)-2-(4-methoxystyryl)benzo[d]thiazole] | 178.71 ± 8.17 | 2.26 | 1.59 | 3.07
6.85 ± 3.72 | 389 | 0.79 ± 0.49 | 0.05 | 0.7 | Oc1ccc(/C=C/c2nc3ccccc3s2)cc1O [BZTst4, (E)-4-(2-(benzo[d]thiazol-2-yl)vinyl)benzene-1,2-diol] | 5673.33 ± 86.42 | 3.87 | 1.47 | 7.65
34.8 ± 18.4 | 384 | 74 ± 25.8 | – | – | COc1ccc(/C=C/c2nc3ccccc3s2)cc1O [BZTst5, (E)-5-(2-(benzo[d]thiazol-2-yl)vinyl)-2-methoxyphenol] | 788.09 ± 14.46 | 2.91 | 0.93 | 2.70
6.84 ± 3.38 | 388 | 7.11 ± 4.9 | 0.33 | 0.95 | COc1cc(/C=C/c2nc3ccccc3s2)ccc1O [BZTst6, (E)-4-(2-(benzo[d]thiazol-2-yl)vinyl)-2-methoxyphenol] | 3262.22 ± 7.86 | 3.43 | 1.96 | 14.13
